Assay results from US6872716B2, “Antipsychotic sulfonamide-heterocycles, and methods of use thereof” (Sepracor, Inc., priority 2000, dated 2005).

Tests used:
[1] = acetic acid writhing model (in vivo analgesia); conditions: iv; administered intravenously
Protocol: (§1) The acetic acid writhing model was conducted according to Inoue K. et al. Arzneim. Forsch 1991, 41(I), 235. The formalin model was conducted according to Hunskaar, S. et al. J. Neurosci Meth. 1985, 14, 69. The tail flick model was conducted according to D'Amour F. E. and Smith D. L. J. Pharmacol. Exp. Ther. 1941, 72, 74. Compound 6 was administered intravenously.

[2] = tail flick model (in vivo analgesia); conditions: iv; administered intravenously
Protocol: as §1

Sigma-1 (human) = Sigma-1 (human) (Homo sapiens, UniProt Q99720); test: sigma-1 radioligand binding screen
Protocol: (§2) The NMDA receptor (PCP site) screen was conducted according to Goldman, M. E. et al. FEBS Letters 85, […]. The norepinephrine transporter screen was conducted according to Galli A et al. J. Exp. Biol. 1995, 198, 2197. The dopamine and serotonin transporter screens were conducted according to Gu, H. et al. J. Biol. Chem. 1994, 269(10), 7124. The sigma-1 screen was conducted according to de Costa B. R. FEBS 1989, 251, 53.

[3] = formalin model (in vivo analgesia); conditions: iv; administered intravenously
Protocol: as §1

rats [4] = test: learned helplessness test in rats; type: in vivo, rat; conditions: male Wistar rats; dose of 5 mg/kg i.p.
Protocol: The objective of this study was to evaluate the potential antidepressant activity of compounds in the learned helplessness test in rats.
Male rats (Wistar, Iffa Credo, St.-Germain/1″Arbresle, France) with initial weight of 180-200 g at the beginning of the experiments were housed 3 per cage under dark cycle of 12 h-12 h (light on at 7:00 a.m., off at 7:00 p.m.) at a room temperature of 21±1° C., with a minimum 50% humidity, for a minimum of 7 days before the experiments. They had free access to commercial rat chow (UFAC, Vigney, France, ref 811002) and tap water. The learned helplessness test included two phases over 5 days.
Phase 1: Helplessness induction
On day 1, inescapable electric foot-shocks were delivered individually to rats in a Plexiglas chamber (20 cm×16 cm×16 cm [1×w×h]) with a floor consisting of stainless-steel rods. A constant-current shocker (LETICA LI 100-26, Barcelona, Spain) was used to deliver inescapable shocks (0.8 m A scrambled DC current; 10 s duration every 20 s) over 60 minutes. “Non-helplessness” control rats were placed for 1 h in identical chambers without shocking.
Phase 2: Conditional Avoidance Training
Avoidance training in automated two-way shuttle-box (LETICA LI916, Barcelona, Spain) took place on day 3, 4, and 5. The shuttle-box is divided into two equal-sized chambers connected by a 10×10 cm opening. […]

NMDA (PCP site) = test: NMDA receptor (PCP site) radioligand binding screen
Protocol: as §2

rats [5] = test: MK-801-induced locomotion and stereotypies, animal model of psychosis; type: in vivo, rat; conditions: male Wistar rats; 1.0, 2.5 and 5.0 mg/kg i.p.; 0.3 mg/kg MK-801 i.p.
Text: The non-competitive NMDA receptor antagonist MK-801 induces stereotypies and hyperactivity in rodents (see: Carlsson, M. and Carlsson, A., J. Neural Transm., 75, 221 (1989)) by interacting with the NMDA receptor-associated ion channel. Phencyclidine, which also interferes with the NMDA receptor, produces psychotic effects in humans similar in many respects to schizophrenia. […] The neuroleptics haloperidol, clozapine and raclopride are able to reverse the behavioral changes induced by MK-801 in rats (Gattaz, W. F., Schummer, B. and Behrens, S., J. Neural Transm., 96, 227 (1994)). Therefore the MK-801-induced activity and stereotypies in rats may represent an appropriate animal model to test the potential efficacy of antipsychotic drugs.
Male Wistar rats (Iffa Credo, St Germain/l'Arbresle, France), weight 250-300 g were housed 2 per cage on a 12 h/12 h light dark cycle (lights on at 7.00 a.m.) at a room temperature of 21±2° C. for a minimum of 5 days before testing. All animals had access to commercial food and tap water ad libitum. […]
On the day of the experiment, rats were treated with either reference drug vehicle, the reference drugs haloperidol or clozapine the test compound vehicle or test compounds. […] Stereotypies, defined as wall-contacts with the snout, and locomotion, defined as turn-rounds of 180°, were assessed during 5 minute periods.

NE Transporter = NE Transporter (Homo sapiens, UniProt P23975); test: norepinephrine transporter radioligand binding screen
Protocol: as §2

5-HT Transporter = 5-HT Transporter (UniProt P31645); test: serotonin transporter radioligand binding screen
Protocol: as §2

Chain of Sigma-1 (human) (Q99720 whole entry): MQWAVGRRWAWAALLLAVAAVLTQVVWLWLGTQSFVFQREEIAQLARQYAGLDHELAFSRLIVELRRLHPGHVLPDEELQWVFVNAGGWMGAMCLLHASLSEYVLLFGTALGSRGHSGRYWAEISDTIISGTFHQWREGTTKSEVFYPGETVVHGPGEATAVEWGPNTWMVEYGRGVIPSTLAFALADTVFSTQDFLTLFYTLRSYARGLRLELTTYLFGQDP
Chain of NE Transporter (P23975 whole entry): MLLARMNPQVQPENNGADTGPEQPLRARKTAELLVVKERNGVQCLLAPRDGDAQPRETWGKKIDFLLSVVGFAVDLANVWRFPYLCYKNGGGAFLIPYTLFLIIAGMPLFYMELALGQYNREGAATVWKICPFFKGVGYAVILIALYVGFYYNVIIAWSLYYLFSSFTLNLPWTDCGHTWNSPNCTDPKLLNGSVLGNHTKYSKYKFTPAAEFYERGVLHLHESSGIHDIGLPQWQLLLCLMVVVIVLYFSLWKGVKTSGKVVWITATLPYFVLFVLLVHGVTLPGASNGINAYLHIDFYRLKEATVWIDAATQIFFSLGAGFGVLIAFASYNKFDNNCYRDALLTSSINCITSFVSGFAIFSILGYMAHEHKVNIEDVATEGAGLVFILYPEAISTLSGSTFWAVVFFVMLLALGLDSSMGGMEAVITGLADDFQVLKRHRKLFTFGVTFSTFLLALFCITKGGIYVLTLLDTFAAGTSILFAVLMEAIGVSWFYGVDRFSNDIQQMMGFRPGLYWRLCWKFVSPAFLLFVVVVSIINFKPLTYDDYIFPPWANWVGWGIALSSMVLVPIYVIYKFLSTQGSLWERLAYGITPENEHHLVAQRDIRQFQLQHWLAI

For `CS(=O)(=O)N(CC1CCCN(CCc2ccccc2)C1)c1ccccc1` (racemic) [Compound 6, N-(1-phenethyl-pieridin-3-ylmethyl)-N-phenyl-methanesulfonamide], the ED50 [1] was 7.8 mg/kg, the ED50 [2] was 23 mg/kg and the IC50 (Sigma-1 (human)) was 118 nM. The ED50 [3] was 18 mg/kg and the “activity in the learned helplessness test” value (rats [4]) was “active”.

`CS(=O)(=O)N(CC1CCCNC1)c1ccccc1` (stereo not drawn) [Compound 5, N-phenyl-N-piperidin-3-ylmethyl-methanesulfonamide] showed an IC50 (NMDA (PCP site)) of 108 nM.

`CS(=O)(=O)N(C[C@@H]1CCCN(CCc2ccccc2)C1)c1ccccc1` [Compound 12, (R)-N-(1-phenethyl-pieridin-3-ylmethyl)-N-phenyl-methanesulfonamide] showed an IC50 (Sigma-1 (human)) of 550 nM.

For `CS(=O)(=O)N(C[C@H]1CCCN(CCc2ccccc2)C1)c1ccccc1` [Compound 16, (S)-N-(1-phenethyl-pieridin-3-ylmethyl)-N-phenyl-methanesulfonamide], the MK-801-induced locomotion (rats [5]) was “dose-dependent reduction”, the MK-801-induced stereotypies (rats [5]) was “dose-dependent reduction” and the IC50 (Sigma-1 (human)) was 22 nM.

`CS(=O)(=O)N(C[C@@H]1CCCN(CC2(c3ccc(Cl)cc3)CCC2)C1)c1ccccc1` [Compound 21, N-{1-[1-(4-Chloro-phenyl)-cyclobutylmethyl]-piperidin-3-R-ylmethyl}-N-phenyl-methanesulfon-amide] showed an IC50 (NE Transporter) of 62 nM and an IC50 (5-HT Transporter) of 2800 nM.
